Laboratory results published in patent US12065436B2, “Cardiac sarcomere inhibitors” (Cytokinetics, Inc., priority 2018, dated 2024).

Molecular target: bovine cardiac myofibrils (full-length cardiac myosin ATPase in the native sarcomere) (Bos taurus (Bovine), UniProt Q9BE39)
Assay: Skinned bovine cardiac myofibril ATPase assay (PK/LDH-coupled)
Type: biochemical
Conditions: Ca2+ activating to 75% of maximal rate; for CDMF75 IC15: concentration giving 15% inhibition; for IC50: read-out: CDMF75 IC50
Experimental: To evaluate the effect of compounds on the ATPase activity of full-length cardiac myosin in the context of the native sarcomere, skinned myofibril assays were performed. Bovine cardiac myofibrils were obtained by homogenizing bovine cardiac left ventricular tissue in the presence of a detergent such as triton X-100. Such treatment removes membranes and a majority of the soluble cytoplasmic proteins but leaves intact the cardiac sarcomeric acto-myosin apparatus. Myofibril preparations retain the ability to hydrolyze ATP in an Ca^2+ regulated manner. ATPase activities of such myofibril preparations in the presence and absence of compounds were assayed at Ca^2+ concentrations activating to a defined fraction of the maximal rate (i.e., 25%, 75%). Small molecule agents were assessed for their ability to inhibit the steady-state ATPase activity of bovine cardiac myofibrils using pyruvate kinase and lactate dehydrogenase (PK/LDH)-coupled enzyme system. This assay regenerates myosin-produced ADP into ATP by oxidizing NADH, producing an absorbance change at 340 nm. Prior to testing small molecule agents, the bovine cardiac myofibrils were assessed for their calcium responsiveness and the calcium concentration that achieves either a 50% (pCa50) or 75% (pCa75) activation of the myofibril system was chosen as the final condition for assessing the inhibitory activity of the small molecule agents. All enzymatic activity was measured in a buffered solution containing 12 mM PIPES (piperazine-N,N′-bis(2-ethanesulfonic acid), 2 mM magnesium chloride at pH 6.8 (PM 12 buffer). Final assay conditions were 1 mg/mL of bovine cardiac myofibrils, 4 U/mL pyruvate kinase, 6 U/mL lactate dehydrogenase, 50 μM ATP, 0.1 mg/mL BSA (bovine serum albumin), 10 ppm antifoam, 1 mM DTT, 0.5 mM NADH, 1.5 mM PEP, 0.6 mM EGTA, and an amount of CaCl2) sufficient to achieve either 50% or 75% activation of the myofibril ATPase activity.

Sequence of bovine cardiac myofibrils (full-length cardiac myosin ATPase in the native sarcomere) (Q9BE39 whole entry): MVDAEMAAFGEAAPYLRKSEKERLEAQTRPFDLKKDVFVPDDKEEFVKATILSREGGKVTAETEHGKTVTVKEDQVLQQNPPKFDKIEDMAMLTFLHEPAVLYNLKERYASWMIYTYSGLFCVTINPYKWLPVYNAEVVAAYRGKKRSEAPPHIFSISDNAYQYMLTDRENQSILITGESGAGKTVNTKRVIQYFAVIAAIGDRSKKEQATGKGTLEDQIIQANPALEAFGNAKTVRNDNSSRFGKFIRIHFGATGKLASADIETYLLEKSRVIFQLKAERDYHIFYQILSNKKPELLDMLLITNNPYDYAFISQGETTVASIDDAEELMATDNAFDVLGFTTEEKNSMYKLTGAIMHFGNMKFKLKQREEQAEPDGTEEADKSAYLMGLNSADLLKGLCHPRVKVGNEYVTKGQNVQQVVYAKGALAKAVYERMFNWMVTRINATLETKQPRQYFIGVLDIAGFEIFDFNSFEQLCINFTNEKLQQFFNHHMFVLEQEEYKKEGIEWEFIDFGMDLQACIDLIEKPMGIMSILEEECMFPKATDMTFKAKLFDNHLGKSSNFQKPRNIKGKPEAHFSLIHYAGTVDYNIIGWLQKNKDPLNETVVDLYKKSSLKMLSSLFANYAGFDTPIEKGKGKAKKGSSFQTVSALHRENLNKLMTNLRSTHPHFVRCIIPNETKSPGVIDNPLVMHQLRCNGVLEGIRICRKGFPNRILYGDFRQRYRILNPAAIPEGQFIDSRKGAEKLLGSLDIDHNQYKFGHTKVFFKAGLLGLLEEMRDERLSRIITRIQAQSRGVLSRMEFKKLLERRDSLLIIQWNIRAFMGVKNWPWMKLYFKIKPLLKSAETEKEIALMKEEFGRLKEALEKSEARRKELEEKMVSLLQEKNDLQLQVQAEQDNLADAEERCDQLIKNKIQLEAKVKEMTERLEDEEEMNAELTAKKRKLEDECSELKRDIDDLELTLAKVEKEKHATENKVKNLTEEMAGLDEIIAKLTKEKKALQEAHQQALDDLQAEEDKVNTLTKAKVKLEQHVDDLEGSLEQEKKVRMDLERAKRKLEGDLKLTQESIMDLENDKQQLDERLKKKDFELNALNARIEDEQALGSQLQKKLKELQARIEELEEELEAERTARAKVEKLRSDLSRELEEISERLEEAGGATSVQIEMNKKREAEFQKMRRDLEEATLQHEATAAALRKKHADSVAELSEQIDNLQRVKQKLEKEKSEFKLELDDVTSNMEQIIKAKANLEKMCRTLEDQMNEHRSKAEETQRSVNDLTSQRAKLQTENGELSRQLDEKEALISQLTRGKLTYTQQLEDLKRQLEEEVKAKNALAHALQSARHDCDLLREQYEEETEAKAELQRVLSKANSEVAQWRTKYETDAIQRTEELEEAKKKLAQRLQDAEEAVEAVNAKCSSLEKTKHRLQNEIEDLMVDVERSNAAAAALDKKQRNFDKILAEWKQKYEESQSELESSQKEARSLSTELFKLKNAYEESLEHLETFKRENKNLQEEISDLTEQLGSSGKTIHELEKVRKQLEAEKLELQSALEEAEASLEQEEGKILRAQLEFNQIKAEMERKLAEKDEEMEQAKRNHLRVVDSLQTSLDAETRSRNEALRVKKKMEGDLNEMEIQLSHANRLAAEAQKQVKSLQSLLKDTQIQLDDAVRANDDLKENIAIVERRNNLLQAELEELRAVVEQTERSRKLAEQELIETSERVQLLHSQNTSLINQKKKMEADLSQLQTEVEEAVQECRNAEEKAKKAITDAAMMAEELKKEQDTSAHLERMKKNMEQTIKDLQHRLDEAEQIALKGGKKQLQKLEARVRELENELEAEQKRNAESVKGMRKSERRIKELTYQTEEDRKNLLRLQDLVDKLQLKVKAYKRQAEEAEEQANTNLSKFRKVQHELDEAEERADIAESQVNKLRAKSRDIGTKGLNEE
Sequence of bovine cardiac myofibrils (full-length cardiac myosin ATPase in the native sarcomere) (P85100 whole entry partner): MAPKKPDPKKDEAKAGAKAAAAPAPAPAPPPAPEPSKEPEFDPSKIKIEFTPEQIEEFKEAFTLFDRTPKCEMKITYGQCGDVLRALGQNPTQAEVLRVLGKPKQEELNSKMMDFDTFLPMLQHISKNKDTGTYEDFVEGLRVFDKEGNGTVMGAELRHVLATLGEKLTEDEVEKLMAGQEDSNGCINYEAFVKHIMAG
Sequence of bovine cardiac myofibrils (full-length cardiac myosin ATPase in the native sarcomere) (Q3SZE5 whole entry partner): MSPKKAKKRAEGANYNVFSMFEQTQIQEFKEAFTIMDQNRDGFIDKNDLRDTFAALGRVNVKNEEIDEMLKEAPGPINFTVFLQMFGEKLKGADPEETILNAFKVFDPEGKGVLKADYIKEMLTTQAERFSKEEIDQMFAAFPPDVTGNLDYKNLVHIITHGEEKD

SMILES	CDMF75 IC15 [µM]	IC50 [µM]
O=C(NC1CCc2cc(-c3noc(C(F)F)n3)ccc21)C(F)F (centres unmarked) [Compound 1, N-(5-(5-(difluoromethyl)-1,2,4-oxadiazol-3-yl)-2,3-dihydro-1H-inden-1-yl)-2,2-difluoroacetamide]	4.5	21.7
Cc1cc(C(=O)NC2CCc3cc(-c4noc(C)n4)ccc32)ccn1 (centres unmarked) [Compound 3, 2-methyl-N-(5-(5-methyl-1,2,4-oxadiazol-3-yl)-2,3-dihydro-1H-inden-1-yl)isonicotinamide]	1.8	7
Cn1cc(C(=O)NC2CCc3cc(-c4noc(C(F)F)n4)ccc32)cn1 (centres unmarked) [Compound 7, N-(5-(5-(difluoromethyl)-1,2,4-oxadiazol-3-yl)-2,3-dihydro-1H-inden-1-yl)-1-methyl-1H-pyrazole-4-carboxamide]	1.1	4.8
Cc1ncc(C(=O)NC2CCc3cc(-c4noc(C(F)F)n4)ccc32)o1 (centres unmarked) [Compound 9, N-(5-(5-(difluoromethyl)-1,2,4-oxadiazol-3-yl)-2,3-dihydro-1H-inden-1-yl)-2-methyloxazole-5-carboxamide]	1.4	6.7
O=C(Nc1ccccc1)NC1CCc2cc(-c3noc(C(F)F)n3)ccc21 (centres unmarked) [Compound 13, 1-(5-(5-(difluoromethyl)-1,2,4-oxadiazol-3-yl)-2,3-dihydro-1H-inden-1-yl)-3-phenylurea]	0.5	22.1
CC(C)NC(=O)NC1CCc2cc(-c3noc(C(F)F)n3)ccc21 (centres unmarked) [Compound 14, 1-(5-(5-(difluoromethyl)-1,2,4-oxadiazol-3-yl)-2,3-dihydro-1H-inden-1-yl)-3-isopropylurea]	39.2	> 39.2
CC(C)(C)OC(=O)NC1CCc2cc(-c3noc(C(F)F)n3)ccc21 (centres unmarked) [Compound 16, tert-butyl (5-(5-(difluoromethyl)-1,2,4-oxadiazol-3-yl)-2,3-dihydro-1H-inden-1-yl)carbamate]	8.9	> 39.2
CCc1nc(-c2cnc3c(c2)CCC3NC(=O)c2ccccc2)no1 (centres unmarked) [Compound 17, N-(3-(5-ethyl-1,2,4-oxadiazol-3-yl)-6,7-dihydro-5H-cyclopenta[b]pyridin-7-yl)benzamide]	2.3	11.3
Cc1cc(C(=O)NC2COc3cc(-c4noc(C)n4)ccc32)ccn1 (centres unmarked) [Compound 18, 2-methyl-N-(6-(5-methyl-1,2,4-oxadiazol-3-yl)-2,3-dihydrobenzofuran-3-yl)isonicotinamide]	1.1	6.8
CCn1nc(C)c(C(=O)NC2CCc3cc(-c4noc(C(F)F)n4)ccc32)n1 (centres unmarked) [Compound 20, N-(5-(5-(difluoromethyl)-1,2,4-oxadiazol-3-yl)-2,3-dihydro-1H-inden-1-yl)-2-ethyl-5-methyl-2H-1,2,3-triazole-4-carboxamide]	2.3	> 39.2
Cc1nc(C(=O)NC2CCc3cc(-c4noc(C(F)F)n4)ccc32)c(C)o1 (centres unmarked) [Compound 22, N-(5-(5-(difluoromethyl)-1,2,4-oxadiazol-3-yl)-2,3-dihydro-1H-inden-1-yl)-2,5-dimethyloxazole-4-carboxamide]	5.5	28.2
Cc1cncc(C(=O)NC2CCc3cc(-c4noc(C(F)F)n4)ccc32)n1 (centres unmarked) [Compound 23, N-(5-(5-(difluoromethyl)-1,2,4-oxadiazol-3-yl)-2,3-dihydro-1H-inden-1-yl)-6-methylpyrazine-2-carboxamide]	5.8	31.4
Cc1cc(C(=O)NC2CCc3cc(-c4noc(C(F)F)n4)ccc32)cc(C)n1 (centres unmarked) [Compound 24, N-(5-(5-(difluoromethyl)-1,2,4-oxadiazol-3-yl)-2,3-dihydro-1H-inden-1-yl)-2,6-dimethylisonicotinamide]	2.1	8
CCc1nn(C)cc1C(=O)NC1CCc2cc(-c3noc(C(F)F)n3)ccc21 (centres unmarked) [Compound 25, N-(5-(5-(difluoromethyl)-1,2,4-oxadiazol-3-yl)-2,3-dihydro-1H-inden-1-yl)-3-ethyl-1-methyl-1H-pyrazole-4-carboxamide]	3.9	16.5
Cc1nccc(C(=O)NC2CCc3cc(-c4noc(C(F)F)n4)ccc32)n1 (centres unmarked) [Compound 26, N-(5-(5-(difluoromethyl)-1,2,4-oxadiazol-3-yl)-2,3-dihydro-1H-inden-1-yl)-2-methylpyrimidine-4-carboxamide]	7.8	30.5

Stronger by IC50, values ahead:

CDMF75 IC15 [µM]	IC50 [µM]	SMILES
1.3	4.6	Cc1nc(C)c(C(=O)NC2CCc3cc(-c4noc(C(F)F)n4)ccc32)o1 (centres unmarked) [Compound 19, N-(5-(5-(difluoromethyl)-1,2,4-oxadiazol-3-yl)-2,3-dihydro-1H-inden-1-yl)-2,4-dimethyloxazole-5-carboxamide]
0.7	3.4	Cn1cncc1C(=O)NC1CCc2cc(-c3noc(C(F)F)n3)ccc21 (centres unmarked) [Compound 6, N-(5-(5-(difluoromethyl)-1,2,4-oxadiazol-3-yl)-2,3-dihydro-1H-inden-1-yl)-1-methyl-1H-imidazole-5-carboxamide]
1.0	3.4	Cc1ncc(C(=O)NC2CCc3cc(-c4noc(C(F)F)n4)ccc32)s1 (centres unmarked) [Compound 10, N-(5-(5-(difluoromethyl)-1,2,4-oxadiazol-3-yl)-2,3-dihydro-1H-inden-1-yl)-2-methylthiazole-5-carboxamide]
0.8	3.4	O=C(NC1CCc2cc(-c3noc(C(F)F)n3)ccc21)c1cncs1 (centres unmarked) [Compound 11, N-(5-(5-(difluoromethyl)-1,2,4-oxadiazol-3-yl)-2,3-dihydro-1H-inden-1-yl)thiazole-5-carboxamide]
0.7	2.9	O=C(NC1CCc2cc(-c3noc(C(F)F)n3)ccc21)c1ocnc1C1CC1 (centres unmarked) [Compound 21, 4-cyclopropyl-N-(5-(5-(difluoromethyl)-1,2,4-oxadiazol-3-yl)-2,3-dihydro-1H-inden-1-yl)oxazole-5-carboxamide]
0.6	2	Cc1nc(-c2ccc3c(c2)CCC3NC(=O)c2ccccc2)no1 (centres unmarked) [Compound 2, N-(5-(5-methyl-1,2,4-oxadiazol-3-yl)-2,3-dihydro-1H-inden-1-yl)benzamide]
0.6	2	Cc1ncoc1C(=O)NC1CCc2cc(-c3noc(C(F)F)n3)ccc21 (centres unmarked) [Compound 12, N-(5-(5-(difluoromethyl)-1,2,4-oxadiazol-3-yl)-2,3-dihydro-1H-inden-1-yl)-4-methyloxazole-5-carboxamide]
0.6	2	Cc1nc(-c2ccc3c(c2)OCC3NC(=O)c2ccccc2)no1 (centres unmarked) [Compound 15, N-(6-(5-methyl-1,2,4-oxadiazol-3-yl)-2,3-dihydrobenzofuran-3-yl)benzamide]
0.43	1.6	O=C(NC1CCc2cc(-c3noc(C(F)F)n3)ccc21)c1ccccc1 (centres unmarked) [Compound 4, N-(5-(5-(difluoromethyl)-1,2,4-oxadiazol-3-yl)-2,3-dihydro-1H-inden-1-yl)benzamide]
0.4	1.4	O=C(NC1CCc2cc(-c3noc(C(F)F)n3)ccc21)c1cnc(Cl)s1 (centres unmarked) [Compound 8, 2-chloro-N-(5-(5-(difluoromethyl)-1,2,4-oxadiazol-3-yl)-2,3-dihydro-1H-inden-1-yl)thiazole-5-carboxamide]
